Measurements as given in patent US11076597B2, “High stress resistant plant growth regulator and preparation method and use thereof” (SHANGHAI INSTITUTES FOR BIOLOGICAL SCIENCES, CHINESE …, priority 2015, dated 2021).

Columns and labels:
[1] = molecular target: T1, rice OsPYL2 + Arabidopsis AtHAB1 (Oryza sativa subsp. japonica, UniProt Q5Z8S0); assay: AlphaScreen assay: promotion of the interaction of rice OsPYL2 with Arabidopsis HAB1; format: binding, rice (OsPYL2); Arabidopsis thaliana (HAB1); conditions: FIG. 13b; 6×His-SUMO-tagged rice OsPYL2, Biotin-tagged Arabidopsis HAB1 (aa 172-511), 100 nM each; pH 7.4; 1.5 h room temperature
T1 construct: made in house; host or cells: E. coli BL21 (DE3)
T1 sequence (Q5Z8S0 1-207): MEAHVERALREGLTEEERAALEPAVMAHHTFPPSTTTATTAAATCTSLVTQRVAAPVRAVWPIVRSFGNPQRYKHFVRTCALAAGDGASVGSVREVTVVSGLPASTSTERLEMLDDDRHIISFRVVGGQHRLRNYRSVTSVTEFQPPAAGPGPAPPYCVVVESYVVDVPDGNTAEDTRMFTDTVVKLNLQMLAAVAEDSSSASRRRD
T1 sequence (Q9CAJ0 172-511 partner limits assumed): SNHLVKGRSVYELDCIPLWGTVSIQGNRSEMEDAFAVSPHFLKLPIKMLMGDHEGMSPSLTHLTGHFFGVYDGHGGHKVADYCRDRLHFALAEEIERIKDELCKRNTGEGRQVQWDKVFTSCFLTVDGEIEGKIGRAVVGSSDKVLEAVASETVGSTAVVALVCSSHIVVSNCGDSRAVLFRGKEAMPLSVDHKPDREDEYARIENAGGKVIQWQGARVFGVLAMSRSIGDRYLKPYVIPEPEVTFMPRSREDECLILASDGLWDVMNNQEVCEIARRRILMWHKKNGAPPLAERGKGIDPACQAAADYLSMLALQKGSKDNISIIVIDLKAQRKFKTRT
Excerpt: Compound 0428 can promote the interaction of the Arabidopsis protein phosphatase HAB1 with soybean GmPYL6 or rice OsPYL2, and this interaction is dose-dependent.
The construction method of recombinant plasmids for the Arabidopsis thaliana genes PYL1 (amino acid sequence 36-211), PYL2 (amino acid sequence 14-188) with dual tags of 6×His and SUMO sequence and the Arabidopsis thaliana gene HAB1 (amino acid sequence 172-511) with the Biotin tag sequence is described in detail in “A gate-latch-lock mechanism for hormone signaling by abscisic acid receptors” (Nature, Vol 462, 2009). The construction method of recombinant plasmids for PYR1 and PYL7 (whole gene coding sequence) and Soybean GmPYL6 and rice OsPYL2 with dual tags of 6×His and SUMO sequence is the same as that for Arabidopsis PYL2.
The above recombinant plasmid is transformed into competent cell of E. coli BL21 (DE3) (purchased from NEB company), and inoculated into 200 ml of LB liquid medium containing Amp resistance (purchased from OXOID company) and cultured overnight at 37° C. at 200 rpm; and inoculated into 2 L of LB liquid medium containing Amp resistance at a ratio of 1:50-1:100 for an extended culture, and cultured at 37° C., 200 rpm for 3-4 hours, and at a low temperature of 16° C. until OD600 is about 0.8-1.0. […]

rice OsPYL2 protein = molecular target: T2, rice OsPYL2 protein (Oryza sativa subsp. japonica, UniProt Q5Z8S0); assay: AlphaScreen assay, rice OsPYL2 with Arabidopsis AtHAB1; format: biochemical; conditions: fraction of the EC50 of ABA; FIG. 13
T2 construct: made in house; host or cells: E. coli BL21 (DE3)
T2 sequence (Q5Z8S0 1-207): T1 sequence (Q5Z8S0 1-207)
T2 sequence (Q9CAJ0 172-511 partner limits assumed): T1 sequence (Q9CAJ0 172-511 partner limits assumed)
Method: The AlphaScreen kit (available from Perkin Elmer) was used, and the method was as follows: a 10× buffer (50 mM MOPS, pH 7.4, 50 mM NaF, 50 mM CHAPS, 0.1 mg/ml bovine serum albumin) diluted at 1:10, each of 100 nM HAB1 with Biotin tag sequence and PYR1/PYL1/PYL2/PYL7/GmPYL6/OsPYL2 protein with dual tags of 6×His and SUMO sequences, corresponding concentrations of (+)-ABA/0224/0304/0706/0708/0713/0715/0428/NC0F4, and 5 μg/ml donor beads and acceptor beads (available from Perkin Elmer) were contained in 150 μl of experimental system. After incubating for 1.5 hours at room temperature in the dark, it was placed into an Envision Plate Reader (available from Perkin Elmer) under the programmed AlphaScreen procedure for readings.

EC50 value for rice OsPYL2 as fraction of that of ABA (rice OsPYL2 protein) | SMILES | EC50 [1] [nM]
 | CC1=CC(=O)CC(C)(C)[C@@]1(O)/C=C/C(C)=C\C(=O)O [ABA, Abscisic Acid, reference compound] | 149
⅓ | CCCN1C(=O)OCc2cc(NS(=O)(=O)Cc3c(F)c(F)c(C)c(F)c3F)ccc21 [Compound 0428] | 
